Measured values: patent US9198894B2, “Uses of 15-benzylidene-14-deoxy-11,12-didehydroandrographolide derivatives in the preparation of antineoplastic drugs” (Zhengzhou University, priority 2010, dated 2015)
Marks after values point to notes of the source that are not given here.

Legend:
Murine hepatoma H22 = test: Anti-tumor and anti-angiogenesis effects on H22 tumor-bearing mice; format: in vivo, mouse; settings: for IR (%) of tumor growth / Carmine contents / VI (vascular index, mg carmine red per g tumor tissue): H22 mice; for Carmine contents / VI (vascular index, mg carmine red per g tumor tissue): mean ± s; for Inhibition against angiogenesis in H22 tumor (in words) / Inhibition against the growth of mouse hepatoma H22 (in words): ig, tested doses 0.65-1.35 mmol/kg
Description: 1) Animals: Kunming mice of clean grade, half male and half female, body weight 20±2 g, were purchased from the experimental animal center of Henan Province, China. Qualified Certificate number: SCXK (Yu) 2005-0001.
2) Cells: Murine hepatoma H22 cells were presently obtained from Henan Academy of Medical and Pharmaceutical Sciences (Zhengzhou, China).
Cyclophosphamide (Cyc) was produced by Tianjin Jingshi Pharmaceutical Co., Ltd., China (approval number of medicine: H12021006). Gelatin and carmine red were supplied by Sigma Chemical (St. Louis, Mo., U.S.A). All other chemicals and reagents were of the highest commercial grade available. All drugs were prepared with normal saline emulsified with Tween-80 (0.1% v/v) and dispersed in carboxymethylcellulose (0.5% v/v). 10% (W/V) carmine solution was prepared with salt solution containing 5% (W/V) gelatin which should be used immediately after preparation. The rest of medicines and reagents and the methods for preparation were the same with that of EXAMPLE 1.
4) Method: The H22 cells after in vivo passage for 7 d were diluted with physiological saline to adjust to a concentration of 1×10^7/mL, injected to the armpit of right forelimb of mice subcutaneously (0.2 ml/mouse), then mice were divided into 10 groups (n=12; 6 male and 6 female per group) randomly. 24 h later each group of mice was administrated intragastrically (ig; 0.2 ml/10 g) once a day continuously for 7 d with vehicle (tumor control group and control group), Cyc (standard control), or compounds at the tested doses. After the last drug administration and a following fasting of 8 h, each mouse was anesthetized with 1% pentobarbital in normal saline solution (80 mg/kg; ip). Mice of control group were injected with 5% gelatin in normal saline solution (40) via the tail vein (1 ml/mouse); whereas mice of other groups were injected replaced by 10% carmine red and 5% gelatin in normal saline solution (40). Mice were killed, then freezed in a refrigerator at −20 for 2 h to solidify. Tumors were segregated, weighed and homogenized with 3 M NaOH solution (10 ml/g tumor). The homogenate supernatant was prepared by being centrifuged for 20 min at 14000 rpm, and the absorbance at 490 nm was assayed using a PowerWaveX Microplate Scanning Spectrophotometer (Bio-tek Instruments, Inc). The carmine red content was calculated based on the standard curve. The vascular index (VI) expressed as milligram of carmine red per gram of tumor tissue. The inhibition ratio (IR) of tumor growth was calculated using the formula: IR (%)=[(Wc−Wt)/Wc]×100%, where Wc is the average tumor weight of the control group, and Wt is that of the drug treatment group. Data were expressed as mean±SD and statistical analysis was performed by SPSS Statistics 17.0 using a one-way analysis of variance (ANOVA) followed by unpaired t-test. A value of P<0.05 was considered statistically significant.

mice = test: Acute oral toxicity test, maximum limit method; format: in vivo; settings: single dose 5.00 g/kg intragastric, 14 d observation; for Deaths: 10 animals
Method: (§1) 1) Animals: Be the same with that of EXAMPLE 4.
3) Method: 20 mice weighing 20±2 g, half male and half female, were divided into 2 groups (n=10) randomly. Animals were administrated with compound 2 or compound 3 at a dose of 5.00 g/kg by intragastric administration after 12 h of fasting (drinking freely). Weigh the mice, observe and record the performance of animals once a day continuously for 14 d.

S180 murine sarcoma = test: Growth, invasion and metastasis of S180 sarcoma in tumor-bearing mice; format: in vivo, mouse; settings: for Average invasion and metastasis grade: S180, grades 0-4; for Mouse Number Grade 0 / Mouse Number Grade 1 / Mouse Number Grade 2 / Mouse Number Grade 3 / Mouse Number Grade 4: S180 invasion; for Mouse Number Grade 0: Grade 0: no invasion; for Mouse Number Grade 1: Grade 1: invasion to right forelimb; for Mouse Number Grade 2: Grade 2: right forelimb and the left side of body; for Mouse Number Grade 3: Grade 3: also the ribs and muscles in chest; for Mouse Number Grade 4: Grade 4: invasion into chest or abdominal cavity; for In vivo antitumor effect on S180 compared with parent compound (in words) / Inhibitory effect on invasion and metastasis of S180 tumor tissues (in words): ig, tested doses
Method: as §1
2) Cells: The S180 murine sarcoma cells were obtained from Henan Academy of Medical and Pharmaceutical Sciences (Zhengzhou, China).
4) Method: Mice were randomly divided into 10 groups (n=12). The S180 cells after in vivo passage for 7 d were diluted with physiological saline to adjust to a concentration of 1×10^7/mL. The inoculation of tumor cells was conducted in two batches, those of tumor control group I and groups treated with compounds 1 or 3 were in batch 1, those of tumor control group II, Cyc group and the compound 2 groups were in batch 2. The mice were injected with S180 cells (0.2 ml/mouse) into the armpit of right forelimb subcutaneously, and 24 h later each group of mice was administrated intragastrically (ig; 0.2 ml/10 g) once a day continuously for 9 d with vehicle (tumor control group), Cyc (standard control), or compounds at the tested doses. On day 10, kill the mice, observe and record the degree of invasion and metastasis of tumor tissues, then the tumor tissues were segregated and weighed. The inhibition ratio (IR) of tumor growth was calculated by the following formula: IR (%)=[(Wc−Wt)/Wc]×100%, where Wc is the average tumor weight of the control group, and Wt is that of the treatment group. Data were expressed as mean±SD and statistical analysis was performed by SPSS Statistics 17.0 using a one-way analysis of variance (ANOVA) followed by unpaired t-test. A value of P<0.05 was considered statistically significant.

[1] = 1.10 mmol/kg (1.10 mmol/g [sic])

C=C1CCC2C(C)(COC(=O)c3cccnc3)C(OC(=O)c3cccnc3)CCC2(C)C1C=CC1=CC(=Cc2ccc(Cl)cc2)OC1=O (centres unmarked) [Compound 3, 15-p-chlorobenzylidene-14-deoxy-11,12-didehydro-3,19-dinicotinate andrographolide]
IR (%) of tumor growth (Murine hepatoma H22; 0.65 mmol/kg ig once a day 7 d): 37.89* %
Carmine contents (Murine hepatoma H22; 0.65 mmol/kg ig once a day 7 d): 2.26 ± 1.97*^Δ
VI (vascular index, mg carmine red per g tumor tissue) (Murine hepatoma H22; 0.65 mmol/kg ig once a day 7 d): 3.60 ± 1.86*^Δ mg/g
IR (%) of tumor growth (Murine hepatoma H22; 1.00 mmol/kg ig once a day 7 d): 41.26*^ΔΔ %
Carmine contents (Murine hepatoma H22; 1.00 mmol/kg ig once a day 7 d): 1.88 ± 1.26**^ΔΔ
VI (vascular index, mg carmine red per g tumor tissue) (Murine hepatoma H22; 1.00 mmol/kg ig once a day 7 d): 3.30 ± 1.43*^Δ mg/g
IR (%) of tumor growth (Murine hepatoma H22; 1.35 mmol/kg ig once a day 7 d): 49.27**^ΔΔ %
Carmine contents (Murine hepatoma H22; 1.35 mmol/kg ig once a day 7 d): 2.14 ± 1.42*^Δ
VI (vascular index, mg carmine red per g tumor tissue) (Murine hepatoma H22; 1.35 mmol/kg ig once a day 7 d): 3.88 ± 1.40 mg/g
Inhibition against angiogenesis in H22 tumor (in words) (Murine hepatoma H22): significant inhibition
Inhibition against the growth of mouse hepatoma H22 (in words) (Murine hepatoma H22): significant inhibition
Mortality(%) (mice): 0%
Toxic symptoms observed (mice): No apparent toxic symptoms
Deaths (mice): 0
IR (%) of S180 sarcoma growth (S180 murine sarcoma; 0.60 mmol/kg ig once a day 9 d): 18.89 ± 3.68 %
IR (%) of S180 sarcoma growth (S180 murine sarcoma; 0.85 mmol/kg ig once a day 9 d): 20.21 ± 4.37 %
IR (%) of S180 sarcoma growth (S180 murine sarcoma; 1.10 mmol/kg ig once a day 9 d): 24.44 ± 6.30 %
IR (%) of S180 sarcoma growth (S180 murine sarcoma; 1.35 mmol/kg ig once a day 9 d): 31.21 ± 5.96**^Δ %
Average invasion and metastasis grade (S180 murine sarcoma; 0.60 mmol/kg): 1.08
Average invasion and metastasis grade (S180 murine sarcoma; 0.85 mmol/kg): 1.25
Average invasion and metastasis grade (S180 murine sarcoma; [1]): 0.42
Mouse Number Grade 0 (S180 murine sarcoma; 0.60 mmol/kg): 4
Mouse Number Grade 0 (S180 murine sarcoma; 0.85 mmol/kg): 5
Mouse Number Grade 0 (S180 murine sarcoma; [1]): 8
Mouse Number Grade 1 (S180 murine sarcoma; 0.60 mmol/kg): 5
Mouse Number Grade 1 (S180 murine sarcoma; 0.85 mmol/kg): 2
Mouse Number Grade 1 (S180 murine sarcoma; [1]): 3
Mouse Number Grade 2 (S180 murine sarcoma; 0.60 mmol/kg): 1
Mouse Number Grade 2 (S180 murine sarcoma; 0.85 mmol/kg): 2
Mouse Number Grade 2 (S180 murine sarcoma; [1]): 1
Mouse Number Grade 3 (S180 murine sarcoma; 0.60 mmol/kg): 2
Mouse Number Grade 3 (S180 murine sarcoma; 0.85 mmol/kg): 3
Mouse Number Grade 3 (S180 murine sarcoma; [1]): 0
Mouse Number Grade 4 (S180 murine sarcoma; 0.60 mmol/kg): 0
Mouse Number Grade 4 (S180 murine sarcoma; 0.85 mmol/kg): 0
Mouse Number Grade 4 (S180 murine sarcoma; [1]): 0
In vivo antitumor effect on S180 compared with parent compound (in words) (S180 murine sarcoma): significantly stronger than that of the parent compound
Inhibitory effect on invasion and metastasis of S180 tumor tissues (in words) (S180 murine sarcoma): strong inhibitory effect

C=C1CCC2C(C)(CO)C(O)CCC2(C)C1C=CC1=CC(=Cc2ccc(Cl)cc2)OC1=O (centres unmarked) [Compound 2, 15-p-chlorobenzylidene-14-deoxy-11,12-didehydro-andrographolide]
IR (%) of tumor growth (Murine hepatoma H22; 0.65 mmol/kg ig once a day 7 d): 15.69%
Carmine contents (Murine hepatoma H22; 0.65 mmol/kg ig once a day 7 d): 4.63 ± 2.93
VI (vascular index, mg carmine red per g tumor tissue) (Murine hepatoma H22; 0.65 mmol/kg ig once a day 7 d): 4.42 ± 1.58 mg/g
IR (%) of tumor growth (Murine hepatoma H22; 1.00 mmol/kg ig once a day 7 d): 49.63**^ΔΔ %
Carmine contents (Murine hepatoma H22; 1.00 mmol/kg ig once a day 7 d): 2.59 ± 1.68*^Δ
VI (vascular index, mg carmine red per g tumor tissue) (Murine hepatoma H22; 1.00 mmol/kg ig once a day 7 d): 3.89 ± 0.89 mg/g
IR (%) of tumor growth (Murine hepatoma H22; 1.35 mmol/kg ig once a day 7 d): 50.37**^ΔΔ %
Carmine contents (Murine hepatoma H22; 1.35 mmol/kg ig once a day 7 d): 1.90 ± 1.39**^ΔΔ
VI (vascular index, mg carmine red per g tumor tissue) (Murine hepatoma H22; 1.35 mmol/kg ig once a day 7 d): 3.14 ± 1.69*^Δ mg/g
Inhibition against angiogenesis in H22 tumor (in words) (Murine hepatoma H22): significant inhibition
Inhibition against the growth of mouse hepatoma H22 (in words) (Murine hepatoma H22): significant inhibition
Mortality(%) (mice): 0%
Deaths (mice): 0
IR (%) of S180 sarcoma growth (S180 murine sarcoma; 0.60 mmol/kg ig once a day 9 d): 30.12 ± 8.00 %
IR (%) of S180 sarcoma growth (S180 murine sarcoma; 0.85 mmol/kg ig once a day 9 d): 53.38 ± 6.83**^ΔΔ %
IR (%) of S180 sarcoma growth (S180 murine sarcoma; 1.10 mmol/kg ig once a day 9 d): 45.16 ± 5.58**^ΔΔ %
Average invasion and metastasis grade (S180 murine sarcoma; 0.60 mmol/kg): 2.00
Average invasion and metastasis grade (S180 murine sarcoma; 0.85 mmol/kg): 0.00
Average invasion and metastasis grade (S180 murine sarcoma; [1]): 0.00
Mouse Number Grade 0 (S180 murine sarcoma; 0.60 mmol/kg): 0
Mouse Number Grade 0 (S180 murine sarcoma; 0.85 mmol/kg): 12
Mouse Number Grade 0 (S180 murine sarcoma; [1]): 12
Mouse Number Grade 1 (S180 murine sarcoma; 0.60 mmol/kg): 0
Mouse Number Grade 1 (S180 murine sarcoma; 0.85 mmol/kg): 0
Mouse Number Grade 1 (S180 murine sarcoma; [1]): 0
Mouse Number Grade 2 (S180 murine sarcoma; 0.60 mmol/kg): 12
Mouse Number Grade 2 (S180 murine sarcoma; 0.85 mmol/kg): 0
Mouse Number Grade 2 (S180 murine sarcoma; [1]): 0
Mouse Number Grade 3 (S180 murine sarcoma; 0.60 mmol/kg): 0
Mouse Number Grade 3 (S180 murine sarcoma; 0.85 mmol/kg): 0
Mouse Number Grade 3 (S180 murine sarcoma; [1]): 0
Mouse Number Grade 4 (S180 murine sarcoma; 0.60 mmol/kg): 0
Mouse Number Grade 4 (S180 murine sarcoma; 0.85 mmol/kg): 0
Mouse Number Grade 4 (S180 murine sarcoma; [1]): 0
In vivo antitumor effect on S180 compared with parent compound (in words) (S180 murine sarcoma): significantly stronger than that of the parent compound
Inhibitory effect on invasion and metastasis of S180 tumor tissues (in words) (S180 murine sarcoma): strong inhibitory effect
